# Where “and” joins values, the source holds several entries; their conditions need not be identical. Identical values can stand only once. Entries after “also recorded” stand apart in the source; their conditions may differ. Like-named read-outs stand apart in the source and are kept apart here.
# Tests used:
# [1] = system: T. gondii β-gal tachyzoites; assay: Primary screening: T. gondii β-gal proliferation in HFF monolayers at 0.1 and 1 µM (CPRG readout); assay type: cell-based, Toxoplasma gondii; settings: tachyzoites cultured in HFF, 72 h, relative to DMSO control
# Method: (§1) The screening cascade for the compounds was described in former studies. All compounds were prepared as 1 mM stock solutions from powder, in dimethyl sulfoxide (DMSO, Sigma, St. Louis, MO, USA). For in vitro activity and cytotoxicity assays, HFF were seeded at 5 × 10^3/well and allowed to grow to confluence in phenol-red free culture medium at 37 °C and 5% CO2. T. gondii tachyzoites were released from host cells, and HFF monolayers were infected with freshly isolated parasites (1 × 10^3/well), and compounds were added concomitantly with infection.
# In the primary screening, HFF monolayers infected with T. gondii β-gal were treated with 0.1 and 1 µM of each compound, or the corresponding concentration of DMSO (0.01 or 0.1%, respectively) as controls and were incubated for 72 h at 37 °C/5% CO2 as previously described.
# (§2) To measure the activity of the tested compound on T. gondii β-gal parasites, after a period of 72 h of culture at 37 °C/5% CO2, the culture medium was aspirated, and cells were permeabilized by adding 90 μL PBS (phosphate buffered saline) with 0.05% Triton X-100. Next, 10 μL of 5 mM chlorophenolred-β-D-galactopyranoside (CPRG; Roche Diagnostics, Rotkreuz, Switzerland, substrate for the β-galactosidase) in PBS were added. Release of chlorophenol red was measured at 570 nm using an EnSpire® multimode plate reader (PerkinElmer, Inc., Waltham, MA, USA). A 100% proliferation of T. gondii β-gal was assigned to control parasites treated only with DMSO. For the primary screening at 0.1 and 1 μM, the activity was measured as the release of chlorophenol red over time and was calculated as percentage from the respective DMSO treated control, which represented 100% of T. gondii β-gal growth.
# [2] = system: human foreskin fibroblasts (HFF); assay: Cytotoxicity in non-infected HFF by alamarBlue assay; assay type: cell-based
# Method: as §1
# (§3) Cytotoxicity assays using uninfected confluent HFF host cells were performed by the alamarBlue assay as previously reported. Confluent HFF monolayers in 96 well-plates were exposed to 0.1, 1, and 2.5 μM of each compound. Non-treated HFF as well as DMSO controls (0.01%, 0.1%, and 0.25%) were included. After 72 h of incubation at 37 °C/5% CO2, the medium was removed, and the plates were washed once with PBS. Resazurin suspended in PBS to a final concentration of 0.01 g/L was added to each well (200 μL/well). Fluorescence was measured at excitation wavelength 530 nm and emission wavelength […] using an EnSpire® multimode plate reader (PerkinElmer, Inc, Waltham, MA, USA). The cytotoxicity values were calculated as percentage of the respective DMSO control, which represented 100% of HFF viability.
# [3] = system: T. gondii β-gal tachyzoites; assay: Dose-response study (IC50) against T. gondii β-gal tachyzoites; assay type: cell-based, Toxoplasma gondii; settings: 8 serial concentrations 0.007-1 µM, 72 h
# Method: as §1
# For the dose-response study (IC50 values), measurements for T. gondii β-gal were performed. The selected compounds were added concomitantly with infection in 8 serial concentrations 0.007, 0.01, 0.03, 0.06, 0.12, 0.25, 0.5, and 1 μM.
# as §2
# For the IC50 assays, the activity measured as the release of chlorophenol red over time was proportional to the number of live parasites down to 50 per well as determined in pilot assays. IC50 values were calculated after the logit-log-transformation of relative growth and subsequent regression analysis. All calculations were performed using the corresponding software tool contained in the Excel software package (Microsoft, Redmond, WA, USA).
# [4] = Stability in DMSO-d6 by 1H NMR (5 min vs 100 days); assay type: physicochemical; settings: 25 °C, 5 min and 100 days after sample preparation, stored at 0-5 °C in the dark
# Method: For the biological activity evaluation, 1 mM stock solutions of all compounds were prepared in dimethylsulfoxide (DMSO).
# The conjugates are well soluble in DMSO, solvent used to prepare standard solutions for biological […]
# To assess their stability, compounds 4, 24, 28, 33 and 39 were dissolved in DMSO-d6, and two 1H NMR spectra were recorded at 25°C 5 min and at least 100 days after sample preparation (Figures S1 and S2).
# Between the two experiments, the samples were stored at 0°C. For all compounds, there are no significant changes between the spectrum recorded after 5 min and the spectrum recorded after at least […]
# further biological tests.
# Figure S1. […]
# [5] = system: T. brucei bloodstream forms; design: method as in PMID 34639127; settings: ref [126]; cited from earlier work
# [6] = Cytotoxicity in non-infected HFF by alamarBlue assay; assay type: cell-based, human; settings: human, non-infected HFF, 72 h, relative to DMSO control, triplicate
# Method: as §1, §3
# [7] = system: T. gondii β-gal tachyzoites; design: method as in PMID 32347622, doi:10.3390/inorganics9080059, PMID 34144354; settings: previously reported, ref [93],[96],[111], cited from earlier work
# [8] = system: human foreskin fibroblasts (HFF); settings: cited from earlier work
# [9] = system: T. gondii β-gal tachyzoites; settings: cited from earlier work
# [10] = 0.1 µM, non-infected HFF, 72 h, relative to DMSO control, triplicate
# [11] = 1 µM, non-infected HFF, 72 h, relative to DMSO control, triplicate
# [12] = 2.5 µM, control 0.25% DMSO = 100%, six replicates
# [13] = 0.1 µM, non-infected HFF, previously reported, ref [93],[96],[111]
# [14] = 1 µM, non-infected HFF, previously reported, ref [93],[96],[111]
Compound,T. gondii β-gal Growth (%) ([1]; 0.1 µM),"HFF Viability (%) [2, 10]",Stability in DMSO-d6 (1H NMR spectra) [4],T. gondii β-gal Growth (%) ([1]; 1 µM),"viability at 72 h, 0.1 µM [6]","viability at 72 h, 1 µM [6]",other results
Cc1ccc(C(C)C)cc1.Cc1ccc(C(C)C)cc1.Cc1cn(Cc2cn(-c3ccc([S]4[Ru]5[S](Cc6ccc(C(C)(C)C)cc6)[Ru+]4[S]5Cc4ccc(C(C)(C)C)cc4)cc3)nn2)c(=O)[nH]c1=O.[Cl-] [Compound 24],56 ± 15%,98 ± 10%,very good stability; also recorded: no modifications,–,–,–,"HFF Viability (%) [2, 11]: 96 ± 4%; HFF Viability (%) [2, 12]: 85%; IC50 [3]: 0.357 µM"
CC(C)(C)c1ccc(C[S]2[Ru]3[S](Cc4ccc(C(C)(C)C)cc4)[Ru+]2[S]3c2ccc(-n3cc(-c4ccccn4)nn3)cc2)cc1.Cc1ccc(C(C)C)cc1.Cc1ccc(C(C)C)cc1.[Cl-] [Compound 39],14 ± 1%,94 ± 2%,very good stability; also recorded: no modifications,0 ± 0%,–,–,"HFF Viability (%) [2, 11]: 90 ± 1%; HFF Viability (%) [2, 12]: highly toxic and 1%; IC50 [3]: 0.075 µM"
CC(C)(C)c1ccc(C[S+]2[Ru-]3[S+](Cc4ccc(C(C)(C)C)cc4)[Ru-]2[S+]3c2ccc(CC(=O)OCCn3cnc4c(N)ncnc43)cc2)cc1.Cc1ccc(C(C)C)cc1.Cc1ccc(C(C)C)cc1.[Cl-] (centres unmarked) [Compound 14],12 ± 1%,95 ± 11%,–,–,–,–,"HFF Viability (%) [2, 12]: low toxicity and medium toxicity and 76%; IC50 [3]: 0.059 µM; Activity against T. brucei bloodstream forms [5]: highly active"
CNc1cn(CCn2cnc3c(N)ncnc32)nn1 [Compound 33],94 ± 11%,84 ± 6%,very good stability; also recorded: no modifications,83 ± 11%,–,–,"HFF Viability (%) [2, 11]: 71 ± 3%"
[N-]=[N+]=NCCn1cnc2c(N)ncnc21 [Compound 32],103 ± 8%,–,–,94 ± 2%,104 ± 2%,103 ± 3%,–
C#CCNC(=O)Cc1ccc([S+]2[Ru-]3[S+](Cc4ccc(C(C)(C)C)cc4)[Ru-]2[S+]3Cc2ccc(C(C)(C)C)cc2)cc1.Cc1ccc(C(C)C)cc1.Cc1ccc(C(C)C)cc1.[Cl-] (centres unmarked) [Compound 8],–,–,–,–,–,–,T. gondii β-gal Growth (%) ([7]; 0.1 µM): 52 ± 13%; T. gondii β-gal Growth (%) ([7]; 1 µM): 3 ± 1%
NC(=O)CCCc1cn(Cc2cc(=O)[nH]c(=O)[nH]2)nn1 [Compound 28],–,101 ± 1%,very good stability; also recorded: no modifications,–,–,–,–
"CCc1nc(N)nc(N)c1-c1ccc(Cl)cc1 [Pyrimethamine, reference compound]",–,–,–,–,–,–,"HFF Viability (%) ([8]; 2.5 µM, reference compound, ref [93]): 99%; IC50 ([9]; reference compound, ref [93]): 0.326 µM"
C#CCn1ccc(=O)[nH]c1=O.C#CCn1ccc(=O)[nH]c1=O [Compound 15],109 ± 5%,–,–,83 ± 0%,107 ± 2%,96 ± 2%,–
C#CCn1cc(C)c(=O)[nH]c1=O.C#CCn1cc(C)c(=O)[nH]c1=O [Compound 16],96 ± 8%,–,–,95 ± 6%,104 ± 2%,103 ± 3%,–
"[N-]=[N+]=NCc1cc(=O)[nH]c(=O)[nH]1 [Compound 27, 6-(azidomethyl)uracil]",101 ± 5%,–,–,99 ± 11%,98 ± 5%,102 ± 3%,–
C#CCn1ccc(N)nc1=O.C#CCn1ccc(N)nc1=O [Compound 17],111 ± 5%,–,–,90 ± 7%,96 ± 1%,93 ± 1%,–
CC(C)(C)c1ccc(C[S+]2[Ru-]3[S+](Cc4ccc(C(C)(C)C)cc4)[Ru-]2[S+]3c2ccc(CC(=O)O)cc2)cc1.Cc1ccc(C(C)C)cc1.Cc1ccc(C(C)C)cc1.[Cl-] (centres unmarked) [Compound 3],–,–,–,–,–,–,"HFF Viability (%) [8, 13]: 91 ± 4%; HFF Viability (%) [8, 14]: 73 ± 1%; HFF viability at 2.5 µM ([8]; 2.5 µM, intermediates previously reported, not in Table 2, ref [93],[111]): did not affect HFF viability; T. gondii β-gal Growth (%) ([7]; 0.1 µM): 114 ± 2%; T. gondii β-gal Growth (%) ([7]; 1 µM): 110 ± 2%"
C#CCn1cnc2c(N)ncnc21.C#CCn1cnc2c(N)ncnc21 [Compound 18],117 ± 4%,–,–,91 ± 6%,96 ± 2%,89 ± 3%,–
CC(C)(C)c1ccc(C[S+]2[Ru-]3[S+](Cc4ccc(C(C)(C)C)cc4)[Ru-]2[S+]3c2ccccc2CO)cc1.Cc1ccc(C(C)C)cc1.Cc1ccc(C(C)C)cc1.[Cl-] (centres unmarked) [Compound 4],–,–,very good stability; also recorded: no modifications,–,–,–,"HFF Viability (%) [8, 13]: 80 ± 1%; HFF Viability (%) [8, 14]: 69 ± 6%; HFF Viability (%) ([8]; 2.5 µM, compound reported earlier, ref [96]): 4%; IC50 ([9]; compound reported earlier, ref [96]): 0.038 µM; T. gondii β-gal Growth (%) ([7]; 0.1 µM): 2 ± 0%; T. gondii β-gal Growth (%) ([7]; 1 µM): 1 ± 0%"

# From PMC9738179, “New Nucleic Base-Tethered Trithiolato-Bridged Dinuclear Ruthenium(II)-Arene Compounds: Synthesis and Antiparasitic Activity” (Molecules, 2022)
